For five molecules, IC50 results are on record in patent US20260070945A1, “MACROCYCLIC IMMUNOMODULATORS” (Bristol-Myers Squibb Company, priority 2022, published 2026).

The target in this experiment is T1, PD-1/PD-L1 interaction (PE-labeled human PD-L1-Ig binding to Jurkat cell line over-expressing human PD-1) (Homo sapiens, UniProt Q15116).
T1 construct: expressed in transfected cells; host or cells: Jurkat
The experiment can be described thus: Jurkat-PD-1 Cell Binding High-Content Screening Assay (CBA). The procedure, abridged: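 Read-out: high-content imaging of cell-bound PE fluorescence, with Hoechst 33342 nuclear counterstain after paraformaldehyde fixation. Before labeled ligand (20 nM final, 1 h) was added, compound sat on the cells for 2 h at 37 °C in DMEM/10% FCS.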

Setting [1] is: Jurkat-hPD-1 cells, PE-labeled PD-L1-Ig 20 nM final; read-out: Jurkat HPD1 PDL1 IC50.

Molecules are shown by their SMILES. Read-outs that look alike come from different tables or passages of the source. *1 amine or outer side, *2 acyl side, *3 side chain or, on linkers, in order; H or OH if unused. Where a SMILES comes first, the peptide text is derived from it. Bridges are numbered along the chain shown (N, C = ends). [ ]: non-standard residue; d: D form. The star is where a group is joined. Phe(4-COOH) = N[C@@H](Cc1ccc(C(=O)O)cc1)C(=O)O; Bip = N[C@@H](Cc1ccc(-c2ccccc2)cc1)C(=O)O; Phe(3-Me) = Cc1cccc(C[C@H](N)C(=O)O)c1; γGlu = O=C(O)[C@H](CCC(=O)[*:2])N[*:1]; NH(CH2)12COOH = O=C(O)CCCCCCCCCCCCN*; Val(3-OH) = CC(C)(O)[C@H](N)C(=O)O; 4Pal = N[C@@H](Cc1ccncc1)C(=O)O; Cha = N[C@@H](CC1CCCCC1)C(=O)O; Carboxymethyl = O=C(O)C*; NMeA = CN[C@@H](C)C(=O)O; Nle = CCCC[C@H](N)C(=O)O; Orn = NCCC[C@H](N)C(=O)O; Aun = NCCCCCCCCCCC(=O)O; Dab = NCC[C@H](N)C(=O)O; Dap = NC[C@H](N)C(=O)O; AEEA = NCCOCCOCC(=O)O

T1 sequence (Q15116 25-288): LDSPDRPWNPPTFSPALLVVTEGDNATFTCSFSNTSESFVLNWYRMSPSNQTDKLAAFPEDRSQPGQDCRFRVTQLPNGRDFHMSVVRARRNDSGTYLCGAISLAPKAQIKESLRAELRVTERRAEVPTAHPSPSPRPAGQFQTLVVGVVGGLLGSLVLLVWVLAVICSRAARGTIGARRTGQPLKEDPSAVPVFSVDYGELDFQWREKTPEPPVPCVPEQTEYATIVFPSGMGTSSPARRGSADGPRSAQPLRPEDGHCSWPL

What is called IC50 is the concentration at which inhibition is half-maximal. On to `Cc1cccc(C[C@@H]2NC(=O)[C@H](CC(=O)O)NC(=O)[C@H](Cc3ccc(C(=O)O)cc3)NC(=O)[C@H](Cc3ccncc3)NC(=O)CSC[C@@H](C(=O)N[C@@H](CCN)C(=O)NCCOCCOCC(=O)NCCCCCCCCCCC(=O)O)NC(=O)[C@H](CCC(=O)O)NC(=O)[C@H](C(C)(C)O)NC(=O)[C@H](CC3CCCCC3)NC(=O)[C@H](CCN)NC(=O)[C@@H](CC(C)C)NC(=O)[C@H](C)N(C)C(=O)[C@H](Cc3ccc(OCC(=O)O)cc3)NC(=O)[C@H](Cc3ccc(-c4ccccc4)cc3)NC(=O)[C@H](Cc3ccc(OCC(=O)O)cc3)NC2=O)c1` [Example 1427] ({CH2CO}-[4Pal][Phe(4-COOH)]D[Phe(3-Me)]Y(Carboxymethyl)[Bip]Y(Carboxymethyl)[NMeA][dL][Dab][Cha][Val(3-OH)]EC[Dab][AEEA][Aun]-OH; thioether N-14), for which, under setting [1], the IC50 worked out at 111 nM.

Regarding `Cc1cccc(C[C@@H]2NC(=O)[C@H](CC(=O)O)NC(=O)[C@H](Cc3ccc(OCC(=O)O)cc3)NC(=O)[C@H](CN)NC(=O)CSC[C@@H](C(=O)NCCCCCCCCCCC(=O)O)NC(=O)[C@H](CCCN)NC(=O)[C@H](C(C)C)NC(=O)[C@H](CC3CCCCC3)NC(=O)[C@H](CCN)NC(=O)[C@@H](CC(C)C)NC(=O)[C@H](C)N(C)C(=O)[C@H](Cc3ccc(O)cc3)NC(=O)[C@H](Cc3ccc(-c4ccccc4)cc3)NC(=O)[C@H](C(C)C)NC2=O)c1` [Example 1319] ({CH2CO}-[Dap]Y(Carboxymethyl)D[Phe(3-Me)]V[Bip]Y[NMeA][dL][Dab][Cha]V[Orn]C[Aun]-OH; thioether N-14), under setting [1], the concentration for half-maximal inhibition (IC50) came out at 42 nM.

Take `CC(C)C[C@@H]1NC(=O)[C@H](Cc2c[nH]c3ccccc23)NC(=O)[C@H](CC(=O)O)NC(=O)[C@H](Cc2ccc(C(=O)O)cc2)NC(=O)[C@H](Cc2ccc(OCC(=O)O)cc2)NC(=O)CSC[C@@H](C(=O)N[C@@H](CCCN)C(=O)NCCOCCOCC(=O)NCCCCCCCCCCC(=O)O)NC(=O)[C@H](CCCN)NC(=O)[C@H](C(C)C)NC(=O)[C@H](CC2CCCCC2)NC(=O)[C@H](CCN)NC(=O)[C@@H](CC(C)C)NC(=O)[C@H](C)N(C)C(=O)[C@H](C(C)C)NC(=O)[C@H](Cc2ccc(-c3ccccc3)cc2)NC1=O` [Example 2135] ({CH2CO}-Y(Carboxymethyl)[Phe(4-COOH)]DWL[Bip]V[NMeA][dL][Dab][Cha]V[Orn]C[Orn][AEEA][Aun]-OH; thioether N-14): the IC50 under setting [1] came out at 13.2 nM.

For `CCCC[C@@H]1NC(=O)CSC[C@@H](C(=O)N[C@@H](CCN)C(=O)NCCOCCOCC(=O)N[C@@H](CCC(=O)NCCOCCOCC(=O)NCCCCCCCCCCCCC(=O)O)C(=O)O)NC(=O)[C@H](CCC(=O)O)NC(=O)[C@H](C(C)C)NC(=O)[C@H](CC2CCCCC2)NC(=O)[C@H](CCN)NC(=O)[C@@H](CC(C)C)NC(=O)[C@H](C)N(C)C(=O)[C@H](Cc2ccc(OCC(=O)O)cc2)NC(=O)[C@H](Cc2ccc(-c3ccccc3)cc2)NC(=O)[C@H](Cc2ccc(OCC(=O)O)cc2)NC(=O)[C@H](Cc2cccc(C)c2)NC(=O)[C@H](CC(=O)O)NC(=O)[C@H](Cc2ccc(OCC(=O)O)cc2)NC1=O` [Example 2657] ({CH2CO}-[Nle]Y(Carboxymethyl)D[Phe(3-Me)]Y(Carboxymethyl)[Bip]Y(Carboxymethyl)[NMeA][dL][Dab][Cha]VEC[Dab][AEEA][γGlu][AEEA]-{NH(CH2)12COOH}; thioether N-14), the IC50 (PE-labeled PD-L1-Ig 20 nM final, Jurkat-hPD-1 cells; read-out: Jurkat HPD1 PDL1 IC50) turned out to be 88.3 nM.

Regarding `Cc1cccc(C[C@@H]2NC(=O)[C@H](CC(=O)O)NC(=O)[C@H](Cc3ccc(OCC(=O)O)cc3)NC(=O)[C@H](CN)NC(=O)CSC[C@@H](C(=O)N[C@@H](CCN)C(=O)NCCOCCOCC(=O)NCCCCCCCCCCC(=O)O)NC(=O)[C@H](CCCN)NC(=O)[C@H](C(C)C)NC(=O)[C@H](CC3CCCCC3)NC(=O)[C@H](CCN)NC(=O)[C@@H](CC(C)C)NC(=O)[C@H](C)N(C)C(=O)[C@H](Cc3ccc(O)cc3)NC(=O)[C@H](Cc3ccc(-c4ccccc4)cc3)NC(=O)[C@H](Cc3ccc(O)cc3)NC2=O)c1` [Example 1312] ({CH2CO}-[Dap]Y(Carboxymethyl)D[Phe(3-Me)]Y[Bip]Y[NMeA][dL][Dab][Cha]V[Orn]C[Dab][AEEA][Aun]-OH; thioether N-14), the IC50 under setting [1] worked out at 27.4 nM.
